{
  "source": "patent US9522913B2",
  "about": "“Pesticidally active bicyclic heterocycles with sulphur containing substituents” (Syngenta Participations AG, priority 2013, dated 2016)",
  "format_in_all_cases": "in vivo",
  "key": {"[1]": {"test_system": "Diabrotica balteata (corn root worm)", "assay": "Activity against Diabrotica balteata, larvicide, feeding/residual contact activity, preventive (Example B2)", "settings": "120 h, maize sprouts sprayed, L2 larvae, 5 days incubation, read-out: activity (larval mortality, growth regulation)", "experimental": "(§1) (Larvicide, Feeding/Residual Contact Activity, Preventive)\nMaize sprouts, placed on an agar layer in 24-well micro titer plates (MTP) are treated with test solutions by spraying. After drying, the MTPs are infested with larvae (L2, 6-10 per well). After an incubation period of 5 days, samples are checked for larval mortality, and growth regulation."}, "[2]": {"test_system": "Spodoptera littoralis (Egyptian cotton leaf worm)", "assay": "Activity against Spodoptera littoralis, larvicide, feeding/residual contact activity, preventive (Example B1)", "settings": "foliar, 72 h, cotton leaf discs sprayed, L1 larvae, 3 days after treatment, read-out: activity (mortality, repellent effect, feeding behaviour, growth regulation)", "from_the_text": "(Larvicide, Feeding/Residual Contact Activity, Preventive) Cotton leaf discs are placed on agar in a 24-well microtiter plate and sprayed with test solutions. After drying, the leaf discs are infested with 5 L1 larvae. The samples are checked for mortality, repellent effect, feeding behaviour, and growth regulation 3 days after treatment (DAT)."}, "[3]": {"test_system": "Aedes aegypti (yellow fever mosquito)", "assay": "whole plant or invertebrate", "settings": "after 48 h, application rate of 200 ppm in ethanol, adult females, read-out: control of Aedes aegypti (mortality)", "experimental": "Test solutions, at an application rate of 200 ppm in ethanol, were applied to 12-well tissue culture plates. Once the deposits were dry, five, two to five days old adult female Aedes aegypti were added to each well, and sustained with a 10% sucrose solution in a cotton wool plug. Assessment of knockdown was made one hour after introduction, and mortality was assessed at 24 and 48 hours after introduction."}, "[4]": {"test_system": "Plutella xylostella (diamond back moth)", "assay": "Activity against Plutella xylostella, larvicide, feeding/residual contact activity, preventive (Example B4)", "settings": "120 h, artificial diet, L2 larvae, 5 days incubation, read-out: activity (larval mortality, antifeedant, growth regulation)", "experimental": "as §1\n24-well microtiter plate (MTP) with artificial diet was treated with test solutions by pipetting. After drying, the MTPs were infested with L2 larvae (10-15 per well). After an incubation period of 5 days, samples were checked for larval mortality, antifeedant and growth regulation."}, "[5]": {"test_system": "Myzus persicae (green peach aphid)", "assay": "Activity against Myzus persicae, systemic/feeding activity, curative, mixed population (Example B6)", "settings": "144 h, roots of infested pea seedlings in test solution, 6 days after introduction", "from_the_text": "(Systemic/Feeding Activity, Curative), Mixed Population\nRoots of pea seedlings, infested with an aphid population of mixed ages, were placed directly in the test solutions. 6 days after introduction, samples were checked for mortality and special effects on the plant."}, "[6]": {"test_system": "Myzus persicae (green peach aphid)", "assay": "Activity against Myzus persicae, feeding/residual contact activity, preventive, mixed population (Example B5)", "settings": "foliar, 144 h, sunflower leaf discs sprayed, mixed-age aphids, 6 DAT", "experimental": "(Feeding/Residual Contact Activity, Preventive), Mixed Population\nSunflower leaf discs were placed on agar in a 24-well microtiter plate and sprayed with test solutions.\nAfter drying, the leaf discs were infested with an aphid population of mixed ages. After an incubation period of 6 DAT, samples were checked for mortality and special effects (e.g. phytotoxicity)."}, "[7]": {"test_system": "Spodoptera littoralis (Egyptian cotton leaf worm)", "assay": "Activity against Spodoptera littoralis, systemic activity (Example B3)", "settings": "120 h, systemic via lettuce roots in agar, 5 days after infestation, read-out: activity (mortality, repellent effect, feeding behavior, growth regulation)", "from_the_text": "Test compounds were applied by pipette into 24 well plates and mixed with agar. Lettuce seeds were placed on the agar and the multi well plate is closed by another plate which contains also agar. After 7 days the roots have absorbed the compound and the lettuce has grown into the lid plate. The lettuce leaves were now cut off into the lid plate. Spodoptera eggs were pipetted through a plastic stencil on a humid gel blotting paper and the plate closed with it. The samples are checked for mortality, repellent effect, feeding behavior, and growth regulation 5 days after infestation."}, "[8]": {"test_system": "Bemisia tabaci (cotton white fly)", "assay": "Activity against Bemisia tabaci, adulticide contact activity, preventative (Example B7)", "settings": "foliar, 168 h, cotton leaf discs sprayed, adult white flies, 7 DAT", "experimental": "(Adulticide Contact Activity, Preventative), Adult\nCotton leaf discs were placed on agar in a 24-well microtiter plate and sprayed with test solutions. After drying, the leaf discs were infested with adult white flies. After an incubation period of 7 DAT, samples were checked for mortality and special effects (e.g. phytotoxicity)."}, "[9]": {"test_system": "Rhopalosiphum padi (bird cherry oat aphid)", "assay": "Seed treatment activity against Rhopalosiphum padi on barley (Example B8)", "settings": "after 28 days, initial loading of 0.3 mg a.i. per seed", "experimental": "Seed Treatment Activity Against Rhopalosiphum padi (Bird Cherry Oat Aphid) (Seed Treatment Systemic/Feeding Activity on Barley, Preventive, Initial and Residual Activity (Infestation 2 and 4 Weeks after Sowing)), Mixed Population\nA treated barley seed is sown in a 350 ml pot filled with soil. Two weeks after sowing phytotoxicity is estimated and expressed in percentage compared to the control. Furthermore the barley seedling is infested with an aphid population of mixed stages. After an incubation period of seven days the grade of efficacy compared to the control is estimated and expressed in percentage. Treatments with all replicates having a level of efficacy over 90% are re-infested with aphids 28 days after sowing for determination of residual activity. Assessment procedures remain the same as described above."}},
  "data": [
    {"smiles": "CC/S(=N\\C#N)c1cc(C(F)(F)F)cnc1-c1nc2cc(C(F)(F)F)cnc2n1C", "note": "(stereo not shown) [P1.1, [ethyl-[2-[3-methyl-6-(trifluoromethyl)imidazo[4,5-b]pyridin-2-yl]-5-(trifluoromethyl)-3-pyridyl]-λ^4-sulfanylidene]cyanamide]", "values": [
      {"measurement": "mortality at 400 ppm", "setting": "[1]", "value": "> 80", "unit": "%"}
    ]},
    {"smiles": "CCS(=O)(=NC#N)c1cc(C(F)(F)F)cnc1-c1nc2cc(C(F)(F)F)cnc2n1C", "note": "(stereo not shown) [P1.2, [ethyl-[2-[3-methyl-6-(trifluoromethyl)imidazo[4,5-b]pyridin-2-yl]-5-(trifluoromethyl)-3-pyridyl]-oxo-λ^6sulfanylidene]cyanamide]", "values": [
      {"measurement": "mortality at 400 ppm", "setting": "[1]", "value": "> 80", "unit": "%"},
      {"measurement": "mortality at 400 ppm", "setting": "[2]", "value": "> 80", "unit": "%"}
    ]},
    {"smiles": "CCS(=O)(=NC(=O)C(F)(F)F)c1cc(C(F)(F)F)cnc1-c1nc2cc(C(F)(F)F)cnc2n1C", "note": "(stereo not shown) [P1.3, N-[ethyl-[2-[3-methyl-6-(trifluoromethyl)imidazo[4,5-b]pyridin-2-yl]-5-(trifluoromethyl)-3-pyridyl]-oxo-λ^6-sulfanylidene]-2,2,2-trifluoro-acetamide]", "values": [
      {"measurement": "mortality at 200 ppm", "setting": "[3]", "value": "≥ 80", "unit": "%"},
      {"measurement": "mortality at 400 ppm", "setting": "[1]", "value": "> 80", "unit": "%"},
      {"measurement": "mortality at 400 ppm", "setting": "[2]", "value": "> 80", "unit": "%"},
      {"measurement": "mortality at 400 ppm", "setting": "[4]", "value": "> 80", "unit": "%"},
      {"measurement": "mortality at 24 ppm", "setting": "[5]", "value": "≥ 80", "unit": "%"},
      {"measurement": "mortality at 400 ppm", "setting": "[6]", "value": "> 80", "unit": "%"},
      {"measurement": "mortality at 12.5 ppm", "setting": "[7]", "value": "≥ 80", "unit": "%"}
    ]},
    {"smiles": "CCS(=N)(=O)c1cc(C(F)(F)F)cnc1-c1nc2cc(C(F)(F)F)cnc2n1C", "note": "(stereo not shown) [P1.4, ethyl-imino-[2-[3-methyl-6-(trifluoromethyl)imidazo[4,5-b]pyridin-2-yl]-5-(trifluoromethyl)-3-pyridyl]-oxo-λ^6-sulfane]", "values": [
      {"measurement": "mortality at 400 ppm", "setting": "[8]", "value": "> 80", "unit": "%"},
      {"measurement": "mortality at 400 ppm", "setting": "[2]", "value": "> 80", "unit": "%"},
      {"measurement": "mortality at 400 ppm", "setting": "[4]", "value": "> 80", "unit": "%"},
      {"measurement": "mortality at 24 ppm", "setting": "[5]", "value": "≥ 80", "unit": "%"},
      {"measurement": "control of Rhopalosiphum padi (efficacy compared to the control)", "setting": "[9]", "value": "at least 80%"},
      {"measurement": "mortality at 400 ppm", "setting": "[6]", "value": "> 80", "unit": "%"},
      {"measurement": "mortality at 12.5 ppm", "setting": "[7]", "value": "≥ 80", "unit": "%"}
    ]},
    {"smiles": "CCS(=O)(=NC(N)=O)c1cc(C(F)(F)F)cnc1-c1nc2cc(C(F)(F)F)cnc2n1C", "note": "(stereo not shown) [P1.5, [ethyl-[2-[3-methyl-6-(trifluoromethyl)imidazo[4,5-b]pyridin-2-yl]-5-(trifluoromethyl)-3-pyridyl]-oxo-λ^6sulfanylidene]urea]", "values": [
      {"measurement": "mortality at 200 ppm", "setting": "[3]", "value": "≥ 80", "unit": "%"},
      {"measurement": "mortality at 400 ppm", "setting": "[1]", "value": "> 80", "unit": "%"}
    ]},
    {"smiles": "CCS(=O)(=NC)c1cc(C(F)(F)F)cnc1-c1nc2cc(C(F)(F)F)cnc2n1C", "note": "(stereo not shown) [P1.6, ethyl-methylimino-[2-[3-methyl-6-(trifluoromethyl)imidazo[4,5-b]pyridin-2-yl]-5-(trifluoromethyl)-3-pyridyl]-oxo-λ^6-sulfane]", "values": [
      {"measurement": "mortality at 400 ppm", "setting": "[8]", "value": "> 80", "unit": "%"},
      {"measurement": "mortality at 200 ppm", "setting": "[3]", "value": "≥ 80", "unit": "%"},
      {"measurement": "mortality at 400 ppm", "setting": "[1]", "value": "> 80", "unit": "%"},
      {"measurement": "mortality at 400 ppm", "setting": "[2]", "value": "> 80", "unit": "%"},
      {"measurement": "mortality at 400 ppm", "setting": "[4]", "value": "> 80", "unit": "%"},
      {"measurement": "mortality at 24 ppm", "setting": "[5]", "value": "≥ 80", "unit": "%"},
      {"measurement": "mortality at 400 ppm", "setting": "[6]", "value": "> 80", "unit": "%"},
      {"measurement": "mortality at 12.5 ppm", "setting": "[7]", "value": "≥ 80", "unit": "%"}
    ]},
    {"smiles": "CCC(=O)N=S(=O)(CC)c1cc(C(F)(F)F)cnc1-c1nc2cc(C(F)(F)F)cnc2n1C", "note": "(stereo not shown) [P1.7, N-[ethyl-[2-[3-methyl-6-(trifluoromethyl)imidazo[4,5-b]pyridin-2-yl]-5-(trifluoromethyl)-3-pyridyl]-oxo-λ^6-sulfanylidene]propanamide]", "values": [
      {"measurement": "mortality at 400 ppm", "setting": "[8]", "value": "> 80", "unit": "%"},
      {"measurement": "mortality at 200 ppm", "setting": "[3]", "value": "≥ 80", "unit": "%"},
      {"measurement": "mortality at 400 ppm", "setting": "[2]", "value": "> 80", "unit": "%"},
      {"measurement": "mortality at 400 ppm", "setting": "[4]", "value": "> 80", "unit": "%"},
      {"measurement": "mortality at 400 ppm", "setting": "[6]", "value": "> 80", "unit": "%"},
      {"measurement": "mortality at 12.5 ppm", "setting": "[7]", "value": "≥ 80", "unit": "%"}
    ]},
    {"smiles": "CCS(=O)(=NC(=O)OC)c1cc(C(F)(F)F)cnc1-c1nc2cc(C(F)(F)F)cnc2n1C", "note": "(stereo not shown) [P1.8, methyl N-[ethyl-[2-[3-methyl-6-(trifluoromethyl)imidazo[4,5-b]pyridin-2-yl]-5-(trifluoromethyl)-3-pyridyl]-oxo-λ^6-sulfanylidene]carbamate]", "values": [
      {"measurement": "mortality at 400 ppm", "setting": "[8]", "value": "> 80", "unit": "%"},
      {"measurement": "mortality at 200 ppm", "setting": "[3]", "value": "≥ 80", "unit": "%"},
      {"measurement": "mortality at 400 ppm", "setting": "[2]", "value": "> 80", "unit": "%"},
      {"measurement": "mortality at 400 ppm", "setting": "[4]", "value": "> 80", "unit": "%"},
      {"measurement": "mortality at 24 ppm", "setting": "[5]", "value": "≥ 80", "unit": "%"},
      {"measurement": "mortality at 400 ppm", "setting": "[6]", "value": "> 80", "unit": "%"},
      {"measurement": "mortality at 12.5 ppm", "setting": "[7]", "value": "≥ 80", "unit": "%"}
    ]},
    {"smiles": "CCS(=O)(=NC=O)c1cc(C(F)(F)F)cnc1-c1nc2cc(C(F)(F)F)cnc2n1C", "note": "(stereo not shown) [P1.10, N-[ethyl-[2-[3-methyl-6-(trifluoromethyl)imidazo[4,5-b]pyridin-2-yl]-5-(trifluoromethyl)-3-pyridyl]-oxo-λ^6sulfanylidene]formamide]", "values": [
      {"measurement": "mortality at 400 ppm", "setting": "[8]", "value": "> 80", "unit": "%"},
      {"measurement": "mortality at 400 ppm", "setting": "[2]", "value": "> 80", "unit": "%"},
      {"measurement": "mortality at 400 ppm", "setting": "[4]", "value": "> 80", "unit": "%"},
      {"measurement": "mortality at 24 ppm", "setting": "[5]", "value": "≥ 80", "unit": "%"},
      {"measurement": "mortality at 400 ppm", "setting": "[6]", "value": "> 80", "unit": "%"},
      {"measurement": "mortality at 12.5 ppm", "setting": "[7]", "value": "≥ 80", "unit": "%"}
    ]}
  ]
}
